Assay [1] deals with T1, xanthine oxidase (XO) (Bos taurus, UniProt P80457). Put plainly: spectrophotometric uric acid formation at […] nm, […] compound. Type of assay: biochemical.
Assay [2] addresses T1, xanthine oxidase (XO). Put plainly: spectrophotometric uric acid formation at […] nm. In kind it is biochemical.

T1 sequence (P80457 2-1332): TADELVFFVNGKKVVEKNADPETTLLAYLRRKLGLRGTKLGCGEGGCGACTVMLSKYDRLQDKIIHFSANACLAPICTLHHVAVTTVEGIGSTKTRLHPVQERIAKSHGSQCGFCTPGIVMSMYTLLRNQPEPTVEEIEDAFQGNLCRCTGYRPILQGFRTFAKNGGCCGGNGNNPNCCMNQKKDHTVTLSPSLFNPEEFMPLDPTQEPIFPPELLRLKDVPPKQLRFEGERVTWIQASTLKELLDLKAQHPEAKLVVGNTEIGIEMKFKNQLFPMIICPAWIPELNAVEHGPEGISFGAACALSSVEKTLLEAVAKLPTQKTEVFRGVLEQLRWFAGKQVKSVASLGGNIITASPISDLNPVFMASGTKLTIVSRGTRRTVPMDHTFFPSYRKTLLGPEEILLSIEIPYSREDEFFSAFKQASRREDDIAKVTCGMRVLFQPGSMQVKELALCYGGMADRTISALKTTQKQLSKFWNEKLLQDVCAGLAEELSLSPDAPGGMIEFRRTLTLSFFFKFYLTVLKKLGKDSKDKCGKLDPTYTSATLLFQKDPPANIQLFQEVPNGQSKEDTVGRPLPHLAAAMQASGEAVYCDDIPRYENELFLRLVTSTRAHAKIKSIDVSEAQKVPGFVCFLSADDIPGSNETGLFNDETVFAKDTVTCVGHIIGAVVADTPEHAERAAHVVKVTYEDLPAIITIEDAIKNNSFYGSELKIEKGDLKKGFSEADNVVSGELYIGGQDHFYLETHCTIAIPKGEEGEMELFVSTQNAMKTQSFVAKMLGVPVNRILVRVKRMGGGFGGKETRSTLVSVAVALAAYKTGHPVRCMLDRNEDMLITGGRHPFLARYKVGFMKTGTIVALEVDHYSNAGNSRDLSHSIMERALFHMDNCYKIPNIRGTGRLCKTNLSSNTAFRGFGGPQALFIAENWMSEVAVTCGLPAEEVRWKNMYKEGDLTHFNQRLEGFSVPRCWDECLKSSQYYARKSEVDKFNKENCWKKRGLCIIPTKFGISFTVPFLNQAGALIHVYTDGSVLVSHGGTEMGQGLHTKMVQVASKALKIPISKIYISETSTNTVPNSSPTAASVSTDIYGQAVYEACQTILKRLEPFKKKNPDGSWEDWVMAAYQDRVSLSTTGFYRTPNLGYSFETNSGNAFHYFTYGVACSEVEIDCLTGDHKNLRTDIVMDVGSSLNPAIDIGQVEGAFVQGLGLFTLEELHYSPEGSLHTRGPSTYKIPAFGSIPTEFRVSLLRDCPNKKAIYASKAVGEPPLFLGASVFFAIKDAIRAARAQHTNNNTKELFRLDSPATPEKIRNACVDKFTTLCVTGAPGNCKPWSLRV

Consider `O=Cc1ccc(O)c(O)c1` [DHB-CHO, 3,4-dihydroxybenzaldehyde], for which, in assay [1], the “spectrophotometric uric acid formation at 295 nm, 20 μM compound” value was “−CHO group such as DHNB, DH6NB, DHB-CHO and THB-CHO had an inhibitory effect on XO”.
`OCc1ccc(O)c(O)c1` [DHBA, 3,4-dihydroxybenzyl alcohol]: the IC50 in assay [2] is 76 µM.
The same measure, in the same setting: then `O=Cc1cc(O)c(O)c(O)c1` [THB-CHO, 3,4,5-trihydroxybenzaldehyde], with > 80 µM.

One may read the IC50 as the point on the concentration scale where inhibition reaches its midpoint.

Source of the values: paper PMC3816736 (Biochemical pharmacology, 2013).
